In patent US20040076974A1, “Liver necrosis predictive genes” (priority 2002, published 2004):
“And” between values parts separate entries of the source, which are not always exact repeats. Identical values can stand only once. Like-named read-outs stand apart in the source and are kept apart here.

How the values were obtained:
[1] = tested on: Sprague Dawley rats; settings: rat
In short: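 Toxicity calls (necrosis present or absent at 72 h) and histopathology scores were correlated with tissue gene expression from Crl:CD Sprague Dawley rats. Animals, usually 3 treated with compound by i.p. route and 3 given vehicle, were killed at 6, 24 or 72 h and tissues frozen immediately in liquid nitrogen.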

[2] = tested on: toxicologically relevant rat genes (rat CT array)
[3] = 24 h, dose 20, ratio treatment/control
[4] = 24 h, dose 20, ratio treatment/control, listed as PHEN

C[C@@H]1C[C@H]2[C@@H]3CCC4=CC(=O)C=C[C@]4(C)[C@@]3(F)[C@@H](O)C[C@]2(C)[C@@]1(O)C(=O)CO [dexamethasone]
Score (histopathology liver necrosis severity score) ([1]; Sprague Dawley, in vivo, ip, 8 mg/kg, 72 h): 1 | Score (histopathology liver necrosis severity score) ([1]; Sprague Dawley, in vivo, ip, 30 mg/kg, 72 h): 1 | Liver Toxicity Necrosis Classification ([1]; in vivo): no | Liver Necrosis ([1]; in vivo, ip, 8 mg/kg): no | Liver Necrosis ([1]; in vivo, ip, 30 mg/kg): no | 60S ribosomal protein L6 expression ([2]; rat, in vivo): 0.8901 and 1.098 (2×) and 0.9353 | Adenine nucleotide translocator 1 expression ([2]; rat, in vivo): 0.9053 and 1.087 and 0.9653 and 0.9797 | Alpha-2-macroglobulin, sequence 2 expression ([2]; rat, in vivo): 0.8488 and 1.069 and 0.9789 and 0.9595 | Alpha-2-microglobulin expression ([2]; rat, in vivo): 0.9657 and 0.9413 | Alpha-tubulin expression ([2]; rat, in vivo): 0.8272 and 1.251 and 0.9313 and 1.093 | Apolipoprotein All expression ([2]; rat, in vivo): 0.7858 and 0.4198 and 0.803 and 0.4911 | Beta-tubulin, class I expression ([2]; rat, in vivo): 0.8776 and 1.559 and 0.9809 and 1.151 | Calpactin I heavy chain expression ([2]; rat, in vivo): 1.271 and 1.029 | Cofilin expression ([2]; rat, in vivo): 1.006 and 0.9999 | Collagen type II expression ([2]; rat, in vivo): 0.9739 and 1.08 and 1.31 | Cystatin C expression ([2]; rat, in vivo): 0.8226 and 0.8364 and 1.078 | Cytochrome P450 2C11 expression ([2]; rat, in vivo): 1.275 | Dynamin-1 (D100) expression ([2]; rat, in vivo): 1.017 and 1.094 and 0.908 and 0.9644 | Elongation factor-1 alpha expression ([2]; rat, in vivo): 0.8912 and 1.18 and 1.019 | F1-ATPase beta subunit expression ([2]; rat, in vivo): 0.9797 and 1.576 and 1.032 and 1.236 | Gamma-actin, cytoplasmic expression ([2]; rat, in vivo): 0.9178 and 0.883 and 0.9507 | Glutathione S-transferase theta-1 expression ([2]; rat, in vivo): 0.9901 and 0.9291 and 0.9991 and 0.8886 | Glycine methyltransferase expression ([2]; rat, in vivo): 1.124 and 1.982 and 1.013 and 1.714 | Heme oxygenase expression ([2]; rat, in vivo): 0.8094 and 0.8311 and 0.7467 | High affinity IgE receptor gamma chain (FcERIgamma) expression ([2]; rat, in vivo): 0.9808 and 0.8055 and 0.8812 and 0.8054 | IgE binding protein expression ([2]; rat, in vivo): 1.039 and 0.992 and 1.096 | Insulin-like growth factor I, exon 6 expression ([2]; rat, in vivo): 0.8498 and 0.631 and 1.058 and 0.6827 | Melanoma-associated antigen ME491 expression ([2]; rat, in vivo): 1.042 and 1.057 and 0.9592 and 0.993 | NADP-dependent isocitrate dehydrogenase, cytosolic expression ([2]; rat, in vivo): 0.9222 and 0.7332 and 0.8853 and 0.7428 | NIPK expression ([2]; rat, in vivo): 0.9259 and 0.8897 and 0.7728 | Osteoactivin expression ([2]; rat, in vivo): 0.8926 and 1.029 and 0.8681 | Phase-1 RCT-39 expression ([2]; rat, in vivo): 0.9168 | Phase-1 RCT-57 expression ([2]; rat, in vivo): 0.9696 | Phase-1 RCT-78 expression ([2]; rat, in vivo): 0.8839 | Phase-1 RCT-81 expression ([2]; rat, in vivo): 0.9341 | Phase-1 RCT-107 expression ([2]; rat, in vivo): 1.099 and 1.846 and 1.664 | Phase-1 RCT-138 expression ([2]; rat, in vivo): 0.9192 and 0.9399 and 0.9819 | Phase-1 RCT-146 expression ([2]; rat, in vivo): 0.9664 | Phase-1 RCT-149 expression ([2]; rat, in vivo): 0.7735 | Phase-1 RCT-164 expression ([2]; rat, in vivo): 0.8597 and 0.7256 and 0.7203 | Phase-1 RCT-179 expression ([2]; rat, in vivo): 0.9599 and 0.8496 | Phase-1 RCT-192 expression ([2]; rat, in vivo): 0.9855 | Phase-1 RCT-295 expression ([2]; rat, in vivo): 0.9503 | Stathmin expression ([2]; rat, in vivo): 1.058 and 1.063 | Uncoupling protein 2 expression ([2]; rat, in vivo): 0.8754 and 1.097 and 0.9302 | alpha-1,2-fucosyltrans-ferase expression ([2]; rat, in vivo): 0.8942 and 0.8707 and 0.7596

NNc1ccccc1 [phenylhydrazine]
Liver Toxicity Necrosis Classification ([1]; in vivo): no | Liver Necrosis ([1]; intraperitoneal, dose 20 mg/kg, 72 hours after treatment): no | Score (histopathology liver necrosis severity score) ([1]; intraperitoneal, dose 20 mg/kg, 72 hours, 1 = not remarkable, 2 and higher increasing severity): 1 | Liver Necrosis ([1]; intraperitoneal, dose 80 mg/kg, 72 hours after treatment): no | Score (histopathology liver necrosis severity score) ([1]; intraperitoneal, dose 80 mg/kg, 72 hours, 1 = not remarkable, 2 and higher increasing severity): 1 | Aflatoxin B1 aldehyde reductase ([2]; 24 h): 0.6558 and 0.8284 | Bax (alpha) [2, 3]: 1.114 | Proliferating cell nuclear antigen gene [2, 3]: 0.9203 | 3-hydroxyisobutyrate dehydrogenase [2, 4]: 0.9143 and 0.9803 | 14-3-3 zeta [2, 4]: 1.282 and 1.371 | 60S ribosomal protein L6 [2, 4]: 0.8081 and 0.8097 | ATPase inhibitor (rat mitochondrial IF1 protein) [2, 4]: 0.5186 and 0.4781 | Alpha 1 - inhibitor III [2, 4]: 0.5075 and 0.4307 | Alpha-2-macroglobulin [2, 4]: 0.5649 and 0.479 | Bax (alpha) [2, 4]: 1.115 | Beta-actin [2, 4]: 1.318 and 1.347 | Calpactin I heavy chain [2, 4]: 1.093 and 1.232 | Carbamyl phosphate synthetase I [2, 4]: 0.8997 and 0.8454 | Carbonic anhydrase III [2, 4]: 2.069 and 2.604 | Carbonyl reductase [2, 4]: 1.013 and 1.035 | Cathepsin L, sequence 2 [2, 4]: 1.124 | Cofilin [2, 4]: 1.075 and 0.9686 | Cyclin G [2, 4]: 1.06 and 1.18 | DNA polymerase beta [2, 4]: 0.6488 and 0.5275 | Dynamin-1 (D100) [2, 4]: 0.9853 and 0.8394 | Endogenous retroviral sequence, 5′ and 3′ LTR [2, 4]: 1.197 and 1.103 | Enolase alpha [2, 4]: 0.7101 and 0.7241 | Epidermal growth factor [2, 4]: 0.7579 and 0.6975 | Equilbrative nitrobenzylthioinosine-sensitive nucleoside transporter [2, 4]: 0.6046 and 0.5693 | Extracellular-signal-regulated kinase 1 [2, 4]: 1.377 and 1.805 | Fas antigen [2, 4]: 1.2 and 1.204 | Gadd45 [2, 4]: 1.142 and 1.49 | Gadd153 [2, 4]: 1.087 and 1.085 | Gamma-actin, cytoplasmic [2, 4]: 0.7836 and 0.7811 | Glucose-regulated protein 78 [2, 4]: 0.8506 and 0.7386 | Heme oxygenase [2, 4]: 1.498 and 1.908 | Hepatic lipase [2, 4]: 0.5441 and 0.4993 | ID-1 [2, 4]: 1.157 and 1.321 | IgE binding protein [2, 4]: 1.098 and 1.166 | IkB-a [2, 4]: 0.8328 and 0.7684 | Insulin-like growth factor I [2, 4]: 0.8551 and 0.7944 | Insulin-like growth factor binding protein 1 [2, 4]: 1.056 and 0.9665 | Insulin-like growth factor binding protein 3 [2, 4]: 0.8807 and 0.8119 | Integrin beta1 [2, 4]: 1.12 | L-gulono-gamma-lactone oxidase [2, 4]: 1.301 and 1.543 | Liver fatty acid binding protein [2, 4]: 0.6905 and 0.5494 | MAP kinase kinase [2, 4]: 1.023 and 1.164 | Macrophage inflammatory protein-2 alpha [2, 4]: 1.132 and 1.347 | Matrin F/G [2, 4]: 1.071 and 0.9981 | Matrix metalloproteinase-1 [2, 4]: 1.581 and 1.897 | Melanoma-associated antigen ME491 [2, 4]: 0.9841 | Monocyte chemotactic protein receptor (CCR2) [2, 4]: 1.3 and 1.499 | Multidrug resistant protein-2 [2, 4]: 1.286 and 1.334 | N-hydroxy-2-acetylaminofluorene sulfotransferase (ST1C1) [2, 4]: 0.5527 and 0.5091 | Nucleoside diphosphate kinase beta isoform [2, 4]: 1.1 | Organic anion transporter 3 [2, 4]: 1.058 | Organic cation transporter 3 [2, 4]: 0.9117 and 0.8387 | Ornithine decarboxylase [2, 4]: 1.479 and 1.694 | PAR interacting protein [2, 4]: 0.9791 and 0.9269 | Phase-1 RCT 252 [2, 4]: 0.7562 | Phase-1 RCT-15 [2, 4]: 3.553 and 2.982 | Phase-1 RCT-39 [2, 4]: 0.9896 | Phase-1 RCT-49 [2, 4]: 0.869 and 0.8084 | Phase-1 RCT-50 [2, 4]: 1.203 | Phase-1 RCT-68 [2, 4]: 1.203 | Phase-1 RCT-78 [2, 4]: 1.292 | Phase-1 RCT-83 [2, 4]: 0.5669 and 0.5525 | Phase-1 RCT-88 [2, 4]: 2.1 | Phase-1 RCT-89 [2, 4]: 0.8262 | Phase-1 RCT-92 [2, 4]: 2.107 | Phase-1 RCT-102 [2, 4]: 1.096 | Phase-1 RCT-137 [2, 4]: 0.4276 and 0.4239 | Phase-1 RCT-144 [2, 4]: 0.8929 | Phase-1 RCT-152 [2, 4]: 0.7359 and 0.7085 | Phase-1 RCT-168 [2, 4]: 0.7781 | Phase-1 RCT-181 [2, 4]: 1.504 | Phase-1 RCT-182 [2, 4]: 0.6963 and 0.8836 | Phase-1 RCT-189 [2, 4]: 0.7721 and 0.6053 | Phase-1 RCT-191 [2, 4]: 0.6314 and 0.7152 | Phase-1 RCT-192 [2, 4]: 0.9295 | Phase-1 RCT-225 [2, 4]: 1 | Phase-1 RCT-264 [2, 4]: 0.5562 and 0.6031 | Phase-1 RCT-270 [2, 4]: 0.728 | Phase-1 RCT-271 [2, 4]: 1.199 | Phase-1 RCT-288 [2, 4]: 0.8205 and 0.8069 | Phase-1 RCT-295 [2, 4]: 1.57 | Proliferating cell nuclear antigen gene [2, 4]: 1.089 | Ribosomal protein L13A [2, 4]: 1.024 | Ribosomal protein S8 [2, 4]: 0.7171 and 0.6731 | Ribosomal protein S17 [2, 4]: 0.7324 and 0.6158 | Senescence marker protein-30 [2, 4]: 0.7313 and 0.841 | Sodium/bile acid cotransporter [2, 4]: 0.6926 and 0.7429 | Superoxide dismutase Mn [2, 4]: 1.092 and 1.114 | Thymosin beta-10 [2, 4]: 0.7195 and 0.7559 | Transthyretin [2, 4]: 0.4631 and 0.4873 | Ubiquitin conjugating enzyme (RAD 6 homologue) [2, 4]: 0.7763 and 0.6535 | Uncoupling protein 2 [2, 4]: 0.9638 and 0.9416 | Zinc finger protein [2, 4]: 0.8961 and 0.8505 | c-jun [2, 4]: 1.14 and 1.384 | c-myc [2, 4]: 1.235 and 1.141 | p53 [2, 4]: 1.067 and 1.196 | {Ribosomal protein L6} [2, 4]: 1.368 and 1.181 | Paraoxonase 1 ([2]; rat, in vivo): 0.4982 and 0.4752
